# From ChEMBL document CHEMBL5625247, “Tetrahydro-β-carboline derivatives as potent histone deacetylase 6 inhibitors with broad-spectrum antiproliferative activity” (Eur J Med Chem, 2023)
# Experiments:
# [1] = biological target: T1, Histone deacetylase 1 (Homo sapiens, UniProt Q13547); assay: Inhibition of HDAC1 (unknown origin) expressed in baculovirus infected in Sf9 cells using RHKKAc as substrate at 500 nM preincubated for 5 to 10 mins followed by substrate addition measured after 2 hrs by fluorescence based assay relative to control; conditions: time 5-130 min
# [2] = biological target: T2, Protein deacetylase HDAC6 (Homo sapiens) (UniProt Q9UBN7); assay: Inhibition of HDAC6 (unknown origin) expressed in baculovirus infected in Sf9 cells using RHKKAc as substrate at 500 nM preincubated for 5 to 10 mins followed by substrate addition measured after 2 hrs by fluorescence based assay relative to control; conditions: time 5-130 min
# T2 sequence (whole entry): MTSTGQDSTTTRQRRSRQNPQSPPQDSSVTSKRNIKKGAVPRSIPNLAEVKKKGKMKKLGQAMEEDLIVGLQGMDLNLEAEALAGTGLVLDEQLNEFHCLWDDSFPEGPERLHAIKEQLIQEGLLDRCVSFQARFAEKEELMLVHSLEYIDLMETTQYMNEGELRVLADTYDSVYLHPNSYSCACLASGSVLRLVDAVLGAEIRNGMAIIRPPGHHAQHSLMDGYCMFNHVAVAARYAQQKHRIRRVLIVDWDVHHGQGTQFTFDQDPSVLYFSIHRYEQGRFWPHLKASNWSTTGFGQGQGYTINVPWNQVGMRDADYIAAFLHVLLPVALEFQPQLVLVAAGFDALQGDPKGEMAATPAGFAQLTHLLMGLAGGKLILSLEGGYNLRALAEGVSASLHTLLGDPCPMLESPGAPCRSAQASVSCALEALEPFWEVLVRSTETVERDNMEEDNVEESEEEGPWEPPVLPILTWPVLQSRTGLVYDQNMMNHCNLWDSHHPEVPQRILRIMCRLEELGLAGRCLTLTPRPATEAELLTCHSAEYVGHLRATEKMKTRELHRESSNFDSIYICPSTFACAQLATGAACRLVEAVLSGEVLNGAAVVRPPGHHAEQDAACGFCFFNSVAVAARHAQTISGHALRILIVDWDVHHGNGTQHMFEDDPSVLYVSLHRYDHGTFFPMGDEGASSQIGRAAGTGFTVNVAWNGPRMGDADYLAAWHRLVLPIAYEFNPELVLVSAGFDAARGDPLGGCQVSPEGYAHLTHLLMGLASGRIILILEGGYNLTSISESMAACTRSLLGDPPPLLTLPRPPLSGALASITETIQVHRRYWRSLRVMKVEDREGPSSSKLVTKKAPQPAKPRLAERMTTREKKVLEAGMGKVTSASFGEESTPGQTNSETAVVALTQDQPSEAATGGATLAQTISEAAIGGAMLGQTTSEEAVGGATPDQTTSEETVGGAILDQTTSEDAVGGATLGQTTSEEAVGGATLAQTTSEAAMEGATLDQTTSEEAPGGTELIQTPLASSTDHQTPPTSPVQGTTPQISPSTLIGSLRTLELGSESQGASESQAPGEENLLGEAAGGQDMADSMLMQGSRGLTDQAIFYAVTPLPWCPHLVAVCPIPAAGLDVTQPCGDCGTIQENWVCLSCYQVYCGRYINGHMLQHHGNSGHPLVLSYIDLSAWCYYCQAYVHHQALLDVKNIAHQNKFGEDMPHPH
# [3] = biological target: T1, Histone deacetylase 1; assay: Inhibition of HDAC1 (unknown origin) expressed in baculovirus infected in Sf9 cells using RHKKAc as substrate preincubated for 5 to 10 mins followed by substrate addition measured after 2 hrs by fluorescence based assay
# [4] = biological target: T3, Protein deacetylase HDAC6 (Homo sapiens, UniProt Q9UBN7); assay: Inhibition of HDAC6 (unknown origin) expressed in baculovirus infected in Sf9 cells using RHKKAc as substrate preincubated for 5 to 10 mins followed by substrate addition measured after 2 hrs by fluorescence based assay
# T3 sequence (Q9UBN7 whole entry): T2 sequence (whole entry)
# [5] = tested on: RPMI-8226; assay: cells; assay type: functional, cell-based; conditions: Homo sapiens, RPMI-8226, 72 h
# T1 sequence (Q13547 whole entry): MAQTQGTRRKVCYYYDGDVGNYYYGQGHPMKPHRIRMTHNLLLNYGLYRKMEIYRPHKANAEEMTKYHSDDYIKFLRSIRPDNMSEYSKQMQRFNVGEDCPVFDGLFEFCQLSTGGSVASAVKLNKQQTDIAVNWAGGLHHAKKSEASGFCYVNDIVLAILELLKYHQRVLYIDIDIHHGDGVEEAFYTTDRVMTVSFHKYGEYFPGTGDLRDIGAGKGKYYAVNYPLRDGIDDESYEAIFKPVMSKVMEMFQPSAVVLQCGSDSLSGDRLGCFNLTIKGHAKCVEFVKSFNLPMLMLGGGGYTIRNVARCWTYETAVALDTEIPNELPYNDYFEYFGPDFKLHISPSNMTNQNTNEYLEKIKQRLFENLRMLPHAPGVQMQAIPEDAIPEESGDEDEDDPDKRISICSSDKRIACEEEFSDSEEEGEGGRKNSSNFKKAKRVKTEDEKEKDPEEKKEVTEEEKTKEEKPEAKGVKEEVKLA
Compound,inhibition [1] [%],inhibition [2] [%],IC50 [3] [nM],IC50 [4] [nM],IC50 [5] [nM]
COc1ccc(C[C@H]2N[C@H](C(=O)NCc3ccc(C(=O)NO)cc3)Cc3c2[nH]c2ccccc32)cc1,38.1,81.5,,,
COc1ccc([C@@H]2N[C@@H](C(=O)NCc3ccc(C(=O)NO)cc3)Cc3c2[nH]c2ccccc32)cc1,90.6,96.4,51.5,2.34,
COc1ccc([C@H]2N[C@H](C(=O)NCc3ccc(C(=O)NO)cc3)Cc3c2[nH]c2ccccc32)cc1,71.4,98.7,494,3.75,
COc1ccc(CN2[C@H](C(=O)NCc3ccc(C(=O)NO)cc3)Cc3c([nH]c4ccccc34)[C@H]2C2CC2)cc1,43.2,,1680,,
O=C(NO)c1ccc(CNC(=O)[C@H]2Cc3c([nH]c4ccccc34)[C@H](C3CC3)N2)cc1,,,38,4.36,830
COc1ccc([C@@H]2N[C@H](C(=O)NCc3ccc(C(=O)NO)cc3)Cc3c2[nH]c2ccccc32)cc1,30.6,87.1,,,
COc1ccc([C@H]2N[C@@H](C(=O)NCc3ccc(C(=O)NO)cc3)Cc3c2[nH]c2ccccc32)cc1,35.8,82.3,,,
COc1ccc(CN2[C@@H](C(=O)NCc3ccc(C(=O)NO)cc3)Cc3c([nH]c4ccccc34)[C@@H]2C)cc1,,,125,8.84,
COc1ccc([C@@H]2N[C@@H](C(=O)NCc3ccc(C(=O)NO)cc3)Cc3c2[nH]c2ccccc32)cc1OC,,,78,,900
O=C(NO)c1ccc(CNC(=O)[C@H]2Cc3c([nH]c4ccccc34)[C@H](c3ccc(Cl)cc3)N2CC2CC2)cc1,,,106,,
O=C(NO)c1ccc(CNC(=O)[C@H]2Cc3c([nH]c4ccccc34)[C@H](C3CC3)N2Cc2ccc(Cl)cc2)cc1,,,184,10.5,
COc1ccc(CN2Cc3[nH]c4ccccc4c3C[C@@H]2C(=O)NCc2ccc(C(=O)NO)cc2)cc1,32,83.4,,,
O=C(NO)c1ccc(CNC(=O)[C@H]2Cc3c([nH]c4ccccc34)[C@H](C3CCCC3)N2)cc1,,,40.5,2.53,680
O=C(NO)c1ccc(CNC(=O)[C@H]2Cc3c([nH]c4ccccc34)[C@H](c3ccccc3)N2)cc1,,,42.3,2.1,580
